# Test results from US12624017B2, “Salt form of isoquinolinone type compound as rock inhibitor and preparation method therefor” (GUANGZHOU OCUSUN OPHTHALMIC BIOTECHNOLOGY CO., LTD., priority 2020, dated 2026).
# Assay: Pharmacokinetic test in aqueous humor after eye drops
# Type: in vivo, New Zealand white rabbits
# Conditions: eye drops 0.5 mg/eye
# Excerpt: The compound was a prodrug molecule containing an ester functional group, which can be hydrolyzed into an active drug molecule (parent drug) under the action of abundant ester hydrolase in the eye tissue when administered with eye drops. In this experiment, the production rate of the active pharmaceutical ingredients in vivo and the exposure amount of the active pharmaceutical ingredients were detected.
# Male New Zealand white rabbits, aged 3 to 6 months, weighted 2.0 to 5.0 kg, purchased from Pizhou Oriental Breeding Co., Ltd.
# The used solvent was 1.2% hydroxypropyl methylcellulose E5/20.5% poloxamer P407/1.6% poloxamer P188.
# The dosage of eye drops was 0.5 mg/eye, administrated in both eyes. Aqueous humor samples were collected at 0.25 h, 0.5 h, 2 h, 4 h, 8 h, and 24 h after administration. All samples were quantitatively detected by liquid chromatography coupled with mass spectrometry-mass spectrometry in the aqueous humor of the experimental animals. The measured concentration values were calculated by WinNonlin non-compartment model according to the concentration-time data of aqueous humor, such as half-life, peak concentration, peak time, unit exposure amount of aqueous humor, etc.
smiles,measurement,value
Cc1ccc(C(=O)OCn2cc(C)c3c(S(=O)(=O)N4CC[C@H](N)C4)cccc3c2=O)c(C)c1 [Compound of formula (I)],Exposure amount of the active drug (conclusion),significantly increased
